# Test results as given in patent publication US12018059B2, “Human amylin analog polypeptides and methods of use” (Intarcia Therapeutics, Inc., priority 2018, dated 2024).
# Starred links: 1 amine or outer side, 2 acyl side, 3 side chain; linkers in the order of their positions; H or OH if unused. Positions of bridges follow the written chain, without caps; N, C: chain ends. Non-standard residues stand in square brackets, D forms with d. Residues, ends and D or L forms follow the SMILES beside them. Groups on a side chain read outwards from the residue. *: point of attachment. γGlu = O=C(O)[C@H](CCC(=O)[*:2])N[*:1]; Palmitoyl = CCCCCCCCCCCCCCCC(=O)*
# Legend:
# [1] = Solubility of amylin analog polypeptides (visual inspection, room temperature); format: physicochemical; details: Solubility
# Method: The analog polypeptides described herein were tested for solubility in saline 20% DMSO in water (i.e., bioassay buffer) or in aqueous (DI water) at room temperature. Samples were visually inspected for clarity of the sample, any appearance of turbidity or haziness.
# [2] = in vivo; design: species or system Sprague-Dawley rats; details: male, Sprague-Dawley, rat, iv, 0.033 mg/kg
# Procedure, shortened: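 Male Sprague-Dawley rats, non-fasted (n=3), given peptide in saline as 1-h IV or SC infusion at 0.033 mg/kg, or SC bolus at 0.3 mg/kg; jugular blood to 48 h into K2EDTA plus protease inhibitors. Plasma extracted by precipitation or WCX solid-phase extraction, quantified by UPLC-MS/MS against standards in matching rat plasma.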
# [3] = 27-day weight loss in combination with exenatide; details: LE DIO rats
# [4] = 27-day HbA1c change in combination with exenatide; details: dose 30 mcg/kg + Exenatide 10 mcg/kg, ZDF rats
# [5] = Acute food intake inhibition after SC bolus injection (BioDAQ); details: Long Evans rats on 45% high fat diet
# [6] = 13-day dose-response body weight loss, continuous SC infusion by osmotic mini-pump; details: 13 days, LE DIO rats
smiles,measurement,setting,value
CCCCCCCCCCCCCCCC(=O)N[C@@H](CCC(=O)N[C@@H](CCC(=O)NCCCC[C@@H](NC(=O)[C@H](CCC(=O)O)NC(=O)[C@H](CC(N)=O)NC(=O)[C@H](C)NC(=O)[C@H](CC(C)C)NC(=O)[C@H](CCCNC(=N)N)NC(=O)[C@H](CCC(N)=O)NC(=O)[C@@H](NC(=O)[C@H](C)NC(=O)[C@@H]1CSSC[C@H](NC(=O)[C@@H](N)CO)C(=O)N[C@@H](CC(N)=O)C(=O)N[C@@H]([C@@H](C)O)C(=O)N[C@@H](CO)C(=O)N[C@@H]([C@@H](C)O)C(=O)N1)[C@@H](C)O)C(=O)N[C@@H](Cc1c[nH]cn1)C(=O)N[C@@H](CCCCN)C(=O)N[C@@H](CO)C(=O)N[C@@H](CO)C(=O)N[C@@H](CC(N)=O)C(=O)N[C@@H](CC(N)=O)C(=O)N[C@@H](Cc1ccccc1)C(=O)NCC(=O)N1CCC[C@H]1C(=O)N[C@H](C(=O)N[C@@H](CC(C)C)C(=O)N1CCC[C@H]1C(=O)N1CCC[C@H]1C(=O)N[C@H](C(=O)N[C@@H](CCCCN)C(=O)N[C@H](C(=O)NCC(=O)N[C@@H](CO)C(=O)N[C@@H](CCC(=O)O)C(=O)N[C@H](C(=O)N[C@@H](Cc1ccc(O)cc1)C(N)=O)[C@@H](C)O)C(C)C)[C@@H](C)O)[C@@H](C)CC)C(=O)O)C(=O)O [Compound A27] (H-SCNTSTCATQRLANE[dK]([γGlu-γGlu-Palmitoyl])HKSSNNFGPILPPTKVGSETY-NH2; disulfide 2-7; N-terminus assumed),solubility,[1],80.6 mg/mL
same,Vd,[2],0.174 L/kg
same,clearance,[2],0.478 mL/min/kg
same,half-life,[2],5.16 h
same,"DIO Combination + Exenatide 27 d weight loss, ΔΔ % weight loss",[3]; dose 3 mcg/kg + Exenatide 10 mcg/kg,9%
same,"DIO Combination + Exenatide 27 d weight loss, ΔΔ % weight loss",[3]; dose 10 mcg/kg + Exenatide 10 mcg/kg,12%
same,"DIO Combination + Exenatide 27 d weight loss, ΔΔ % weight loss",[3]; dose 30 mcg/kg + Exenatide 10 mcg/kg,17%
same,"ZDF Combination + Exenatide 27 d HbA1c (%), ΔΔ % HbA1c",[4],3.3%
same,Acute Food Intake % Inhibition vs vehicle,[5]; 0-24 hr after acute SC dosing,86%
same,Acute Food Intake % Inhibition vs vehicle,[5]; 25-48 hr after acute SC dosing,57%
same,Acute Food Intake % Inhibition vs vehicle,[5]; 49-72 hr after acute SC dosing,13%
same,"DIO Dose Response 13 d weight loss, ED50",[6],0.036 mg/kg
same,"DIO Dose Response 13 d weight loss, ΔΔ % weight loss",[6]; from baseline and vehicle control,5%
